# Tested on: IL-1β release upon NLRP3 activation in peripheral blood mononuclear cells (PBMC)
# Assay: PBMC IC50 determination assay: inhibition of IL-1β release upon NLRP3 activation
# Type: cell-based
# Details: PBMC, PBMC primed with LPS 3 h, compound 30 min, stimulated with ATP (5 mM) or nigericin (10 μM) 1 h; IL-1β by ELISA (Protocol A) or HTRF (Protocol B)
# Procedure: PBMC IC50 determination assay. The compounds of the present disclosure were tested for their inhibitory activity against IL-1β release upon NLRP3 activation in peripheral blood mononuclear cells (PBMC).
# Protocol A. PBMC were isolated from buffy coats by density gradient centrifugation on Histopaque-1077 (Sigma, cat no. 10771). Isolated cells were seeded into the wells of a 96-well plate and incubated for 3 h with lipopolysaccharide (LPS). Following medium exchange, the compounds of the present disclosure were added (a single compound per well) and the cells were incubated for 30 min. Next, the cells were stimulated either with ATP (5 mM) or nigericin (10 μM) for 1 h and the cell culture media from the wells were collected for further analysis.
# The release of IL-1β into the media was determined by a quantitative detection of IL-1β in the media using an IL-1β enzyme-linked immunosorbent assay (ELISA) Ready-SET-Go!, eBioscience cat. No. 88-7261-88. Briefly, in a first step, high affinity binding plates (Corning, Costar 9018 or NUNC Maxisorp Cat No. 44-2404) were coated overnight at 4° C. with specific capture antibody included in the kit (anti-human IL-1β ref. 14-7018-68). Subsequently, plates were blocked with blocking buffer for 1 h at room temperature (rt) and after washing with a buffer (PBS with 0.05% Tween-20) incubated with protein standard and culture media. After 2 h of incubation at rt, plates were washed and incubated with biotinylated detection antibody included in the kit (anti-human IL-1β Biotin ref 33-7110-68) for 1 h at rt. Plates were washed and incubated with HRP-streptavidin for 30 min at rt and washed again. The signal was developed after addition of 3,3′,5,5′-tetramethylbenzidine-peroxidase (TMB) until colour appeared and the reaction was stopped by 2 M H2SO4. A microplate spectrophotometer (BioTek) was used to detect signals with 450 nm. The detection range of IL-1β ELISA was […].
# Protocol B. PBMC were isolated from buffy coats by density gradient centrifugation on Histopaque-1077 (Sigma, cat no. 10771). Isolated cells were seeded into the wells (280,000 cells/well) of a 96-well plate and incubated for 3 h with lipopolysaccharide (LPS, 1 μg/mL diluted 1000× from a 1 mg/mL stock solution). The compounds of the present disclosure were added (a single compound per well) and the cells were incubated for 30 min. Next, the cells were stimulated with ATP (5 mM final concentration diluted 20× from a 100 mM stock solution) for 1 h and the cell culture media from the wells were collected for further analysis.
# The release of IL-1β into the media was determined by quantitative detection of IL-1β in the media using HTRF®, CisBio cat. No. 62HIL1BPEH. Briefly, cell culture supernatant were dispensed directly into the assay plate containing antibodies labelled with the HTRF® donor and acceptor. A microplate spectrophotometer (BMG) was used to detect signals at 655 nm and 620 nm. The detection range of IL-1β HTRF® was 39-6500 μg/mL.
row,Structure (SMILES),IC50 [nM]
1,"CC(C)c1nn(CC(=O)Nc2ncco2)c(=O)c2cc(C3CC3)oc12 [Compound 79, 2-(2-Cyclopropyl-7-isopropyl-4-oxofuro[2,3-d]pyridazin-5(4H)-yl)-N-(oxazol-2-yl)acetamide]",100 to 1000
2,"CCOC(=O)c1cnc(NC(=O)Cn2nc(C(C)C)c3oc(C4CC4)cc3c2=O)nc1 [Compound 80, Ethyl 2-(2-(2-cyclopropyl-7-isopropyl-4-oxofuro[2,3-d]pyridazin-5(4H)-yl)acetamido)pyrimidine-5-carboxylate]",100 to 1000
3,"CC(C)c1nn(CC(=O)N[C@H]2C[C@@](C)(O)C2)c(=O)c2cc(C3CC3)oc12 [Compound 81, 2-(2-Cyclopropyl-7-isopropyl-4-oxofuro[2,3-d]pyridazin-5(4H)-yl)-N-((1s,3s)-3-hydroxy-3-methylcyclobutyl)acetamide]",100 to 1000
4,"Cc1nn(CC(=O)Nc2ncccn2)c(=O)c2cc(C3CC3)oc12 [Compound 82, 2-{2-Cyclopropyl-7-methyl-4-oxo-4H,5H-furo[2,3-d]pyridazin-5-yl}-N-(pyrimidin-2-yl)acetamide]",100 to 1000
5,"Cc1cnc(NC(=O)Cn2nc(C)c3oc(C4CC4)cc3c2=O)nc1 [Compound 83, 2-{2-Cyclopropyl-7-methyl-4-oxo-4H,5H-furo[2,3-d]pyridazin-5-yl}-N-(5-methylpyrimidin-2-yl)acetamide]",100 to 1000
6,"Cc1nn(CC(=O)Nc2ncc(Cl)cn2)c(=O)c2cc(C3CC3)oc12 [Compound 84, N-(5-Chloropyrimidin-2-yl)-2-{2-cyclopropyl-7-methyl-4-oxo-4H,5H-furo[2,3-d]pyridazin-5-yl}acetamide]",100 to 1000
7,"Cc1nn(CC(=O)N[C@H]2C[C@@](C)(O)C2)c(=O)c2cc(C3CC3)oc12 [Compound 85, 2-{2-Cyclopropyl-7-methyl-4-oxo-4H,5H-furo[2,3-d]pyridazin-5-yl}-N-[cis-3-hydroxy-3-methylcyclobutyl]acetamide]",1000 to 3000
8,"CCOC(=O)c1cnc(NC(=O)Cn2nc(C)c3cc(C4CC4)sc3c2=O)nc1 [Compound 86, Ethyl 2-(2-{2-cyclopropyl-4-methyl-7-oxo-6H,7H-thieno[2,3-d]pyridazin-6-yl}acetamido)pyrimidine-5-carboxylate]",100 to 1000
9,"Cc1nn(CC(=O)Nc2ncco2)c(=O)c2cc(C3CC3)oc12 [Compound 87, 2-{2-cyclopropyl-7-methyl-4-oxo-4H,5H-furo[2,3-d]pyridazin-5-yl}-N-(1,3-oxazol-2-yl)acetamide]",1000 to 3000
10,"Cc1nn(CC(=O)Nc2ncccn2)c(=O)c2sc(C3CC3)cc12 [Compound 88, 2-{2-Cyclopropyl-4-methyl-7-oxo-6H,7H-thieno[2,3-d]pyridazin-6-yl}-N-(pyrimidin-2-yl)acetamide]",100 to 1000
11,"CCc1nn(CC(=O)Nc2ncccn2)c(=O)c2cc(C3CC3)oc12 [Compound 89, 2-{2-cyclopropyl-7-ethyl-4-oxo-4H,5H-furo[2,3-d]pyridazin-5-yl}-N-(pyrimidin-2-yl)acetamide]",100 to 1000
12,"CCOC(=O)c1cnc(NC(=O)Cn2nc(C)c3oc(C4CC4)cc3c2=O)nc1 [Compound 90, Ethyl 2-(2-{2-cyclopropyl-7-methyl-4-oxo-4H,5H-furo[2,3-d]pyridazin-5-yl}acetamido)pyrimidine-5-carboxylate]",100 to 1000
13,"Cc1nn(CC(=O)Nc2ncc(C#N)cn2)c(=O)c2cc(C3CC3)oc12 [Compound 91, N-(5-Cyanopyrimidin-2-yl)-2-{2-cyclopropyl-7-methyl-4-oxo-4H,5H-furo[2,3-d]pyridazin-5-yl}acetamide]",100 to 1000
14,"CCOC(=O)Cc1cnc(NC(=O)Cn2nc(C)c3oc(C4CC4)cc3c2=O)nc1 [Compound 92, Ethyl 2-[2-(2-{2-cyclopropyl-7-methyl-4-oxo-4H,5H-furo[2,3-d]pyridazin-5-yl}acetamido)pyrimidin-5-yl]acetate]",100 to 1000
15,"CC(C)Nc1cc2c(C(C)C)nn(CC(=O)Nc3ncccn3)c(=O)c2s1 [Compound 93, 2-[7-Oxo-4-(propan-2-yl)-2-[(propan-2-yl)amino]-6H,7H-thieno[2,3-d]pyridazin-6-yl]-N-(pyrimidin-2-yl)acetamide]",100 to 1000
16,"CNc1cc2c(C(C)C)nn(CC(=O)Nc3ncccn3)c(=O)c2s1 [Compound 94, 2-[2-(Methylamino)-7-oxo-4-(propan-2-yl)-6H,7H-thieno[2,3-d]pyridazin-6-yl]-N-(pyrimidin-2-yl)acetamide]",≤ 100
17,"CC(C)c1nn(CC(=O)Nc2ncccn2)c(=O)c2sc(NCC(F)F)cc12 [Compound 95, 2-{2-[(2,2-Difluoroethyl)amino]-7-oxo-4-(propan-2-yl)-6H,7H-thieno[2,3-d]pyridazin-6-yl}-N-(pyrimidin-2-yl)acetamide]",100 to 1000
18,"COCCNc1cc2c(C(C)C)nn(CC(=O)Nc3ncccn3)c(=O)c2s1 [Compound 96, 2-{2-[(2-Methoxyethyl)amino]-7-oxo-4-(propan-2-yl)-6H,7H-thieno[2,3-d]pyridazin-6-yl}-N-(pyrimidin-2-yl)acetamide]",10000 to 50000
19,"CCN(C)c1cc2c(C(C)C)nn(CC(=O)Nc3ncccn3)c(=O)c2s1 [Compound 97, 2-{2-[Ethyl(methyl)amino]-7-oxo-4-(propan-2-yl)-6H,7H-thieno[2,3-d]pyridazin-6-yl}-N-(pyrimidin-2-yl)acetamide]",3000 to 10000
20,"CCNc1cc2c(C)nn(CC(=O)Nc3ncccn3)c(=O)c2s1 [Compound 98, 2-[2-(Ethylamino)-4-methyl-7-oxo-6H,7H-thieno[2,3-d]pyridazin-6-yl]-N-(pyrimidin-2-yl)acetamide]",1000 to 3000
21,"CCCc1cc2c(C(C)C)nn(CC(=O)Nc3ncccn3)c(=O)c2s1 [Compound 99, 2-[7-Oxo-4-(propan-2-yl)-2-propyl-6H,7H-thieno[2,3-d]pyridazin-6-yl]-N-(pyrimidin-2-yl)acetamide]",100 to 1000
22,"CC(C)c1nn(CC(=O)Nc2ncccn2)c(=O)c2sc(NCC(F)(F)F)cc12 [Compound 100, 2-[7-Oxo-4-(propan-2-yl)-2-[(2,2,2-trifluoroethyl)amino]-6H,7H-thieno[2,3-d]pyridazin-6-yl]-N-(pyrimidin-2-yl)acetamide]",1000 to 3000
23,"CC(C)c1nn(CC(=O)Nc2ncccn2)c(=O)c2sc(N)cc12 [Compound 101, 2-[2-Amino-7-oxo-4-(propan-2-yl)-6H,7H-thieno[2,3-d]pyridazin-6-yl]-N-(pyrimidin-2-yl)acetamide]",1000 to 3000
24,"CCNc1cc2c(=O)n(CC(=O)Nc3ncccn3)nc(C(C)C)c2o1 [Compound 102, 2-[2-(Ethylamino)-4-oxo-7-(propan-2-yl)-4H,5H-furo[2,3-d]pyridazin-5-yl]-N-(pyrimidin-2-yl)acetamide]",100 to 1000
25,"Cc1nn(CC(=O)Nc2ccc3nncn3c2)c(=O)c2cc(C3CC3)oc12 [Compound 103, 2-{2-Cyclopropyl-7-methyl-4-oxo-4H,5H-furo[2,3-d]pyridazin-5-yl}-N-{[1,2,4]triazolo[4,3-a]pyridin-6-yl}acetamide]",1000 to 3000
26,"CC(C)c1nn(CC(=O)Nc2ccc3nncn3c2)c(=O)c2cc(C3CC3)oc12 [Compound 104, 2-[2-Cyclopropyl-4-oxo-7-(propan-2-yl)-4H,5H-furo[2,3-d]pyridazin-5-yl]-N-{[1,2,4]triazolo[4,3-a]pyridin-6-yl}acetamide]",100 to 1000
